According to PubChem BioAssay AID1259407 (Chemical Carcinogenesis Research Information System (CCRIS), 2018):
Active and inactive are the calls of the source. How the calls were made is not given here.

Test system: CCRIS mutagenicity, Ames/micronucleus/aberration tests
Test: CCRIS mutagenicity studies

Measured: mutagenic call

CCCCCCC(O)CCCCCCCCCCC(=O)O (stereo not given)
inactive: Test System: AMES SALMONELLA TYPHIMURIUM, Strain/Indicator: TA97, Metabolic Activation: NONE, Method: STANDARD PLATE inactive; negative | Test System: AMES SALMONELLA TYPHIMURIUM, Strain/Indicator: TA97, Metabolic Activation: S-9, Method: STANDARD PLATE inactive; negative | Test System: AMES SALMONELLA TYPHIMURIUM, Strain/Indicator: TA98, Metabolic Activation: NONE, Method: STANDARD PLATE inactive; negative | Test System: AMES SALMONELLA TYPHIMURIUM, Strain/Indicator: TA100, Metabolic Activation: NONE, Method: STANDARD PLATE inactive; negative | Test System: AMES SALMONELLA TYPHIMURIUM, Strain/Indicator: TA100, Metabolic Activation: S-9, Method: STANDARD PLATE inactive; negative | Test System: AMES SALMONELLA TYPHIMURIUM, Strain/Indicator: TA102, Metabolic Activation: NONE, Method: STANDARD PLATE inactive; negative | Test System: AMES SALMONELLA TYPHIMURIUM, Strain/Indicator: TA102, Metabolic Activation: S-9, Method: STANDARD PLATE inactive; negative | Test System: E.COLI, Strain/Indicator: WP2 (PKM101), Metabolic Activation: NONE, Method: STANDARD PLATE inactive; negative | Test System: E.COLI, Strain/Indicator: WP2 (PKM101), Metabolic Activation: S-9, Method: STANDARD PLATE inactive; negative

CCCCC(CC)CO (stereo not given)
inactive: Test System: AMES SALMONELLA TYPHIMURIUM, Strain/Indicator: TA98, Metabolic Activation: HAMSTER, LIVER, S-9, AROCLOR 1254 (10%), Method: PREINCUBATION inactive; negative | Test System: AMES SALMONELLA TYPHIMURIUM, Strain/Indicator: TA98, Metabolic Activation: NONE, Method: PREINCUBATION inactive; negative | Test System: AMES SALMONELLA TYPHIMURIUM, Strain/Indicator: TA98, Metabolic Activation: RAT LIVER S-9, PHENOBARBITAL AND BETA-NAPHTHOFLAVONE, Method: PREINCUBATION inactive; negative | Test System: AMES SALMONELLA TYPHIMURIUM, Strain/Indicator: TA98, Metabolic Activation: RAT, LIVER, S-9, AROCLOR 1254 (10%), Method: PREINCUBATION inactive; negative | Test System: AMES SALMONELLA TYPHIMURIUM, Strain/Indicator: TA98, Metabolic Activation: RAT, LIVER, S-9, KC 500, Method: PREINCUBATION inactive; negative | Test System: AMES SALMONELLA TYPHIMURIUM, Strain/Indicator: TA100, Metabolic Activation: HAMSTER, LIVER, S-9, AROCLOR 1254 (10%), Method: PREINCUBATION inactive; negative | Test System: AMES SALMONELLA TYPHIMURIUM, Strain/Indicator: TA100, Metabolic Activation: NONE, Method: PREINCUBATION inactive; negative | Test System: AMES SALMONELLA TYPHIMURIUM, Strain/Indicator: TA100, Metabolic Activation: RAT LIVER S-9, PHENOBARBITAL AND BETA-NAPHTHOFLAVONE, Method: PREINCUBATION inactive; negative | Test System: AMES SALMONELLA TYPHIMURIUM, Strain/Indicator: TA100, Metabolic Activation: RAT, LIVER, S-9, AROCLOR 1254 (10%), Method: PREINCUBATION inactive; negative | Test System: AMES SALMONELLA TYPHIMURIUM, Strain/Indicator: TA100, Metabolic Activation: RAT, LIVER, S-9, KC 500, Method: PREINCUBATION inactive; negative | Test System: AMES SALMONELLA TYPHIMURIUM, Strain/Indicator: TA1535, Metabolic Activation: HAMSTER, LIVER, S-9, AROCLOR 1254 (10%), Method: PREINCUBATION inactive; negative | Test System: AMES SALMONELLA TYPHIMURIUM, Strain/Indicator: TA1535, Metabolic Activation: NONE, Method: PREINCUBATION inactive; negative | Test System: AMES SALMONELLA TYPHIMURIUM, Strain/Indicator: TA1535, Metabolic Activation: RAT LIVER S-9, PHENOBARBITAL AND BETA-NAPHTHOFLAVONE, Method: PREINCUBATION inactive; negative | Test System: AMES SALMONELLA TYPHIMURIUM, Strain/Indicator: TA1535, Metabolic Activation: RAT, LIVER, S-9, AROCLOR 1254 (10%), Method: PREINCUBATION inactive; negative | Test System: AMES SALMONELLA TYPHIMURIUM, Strain/Indicator: TA1535, Metabolic Activation: RAT, LIVER, S-9, KC 500, Method: PREINCUBATION inactive; negative | Test System: AMES SALMONELLA TYPHIMURIUM, Strain/Indicator: TA1537, Metabolic Activation: HAMSTER, LIVER, S-9, AROCLOR 1254 (10%), Method: PREINCUBATION inactive; negative | Test System: AMES SALMONELLA TYPHIMURIUM, Strain/Indicator: TA1537, Metabolic Activation: NONE, Method: PREINCUBATION inactive; negative | Test System: AMES SALMONELLA TYPHIMURIUM, Strain/Indicator: TA1537, Metabolic Activation: RAT LIVER S-9, PHENOBARBITAL AND BETA-NAPHTHOFLAVONE, Method: PREINCUBATION inactive; negative | Test System: AMES SALMONELLA TYPHIMURIUM, Strain/Indicator: TA1537, Metabolic Activation: RAT, LIVER, S-9, AROCLOR 1254 (10%), Method: PREINCUBATION inactive; negative | Test System: AMES SALMONELLA TYPHIMURIUM, Strain/Indicator: TA1537, Metabolic Activation: RAT, LIVER, S-9, KC 500, Method: PREINCUBATION inactive; negative | Test System: AMES SALMONELLA TYPHIMURIUM, Strain/Indicator: TA1538, Metabolic Activation: NONE, Method: PREINCUBATION inactive; negative | Test System: AMES SALMONELLA TYPHIMURIUM, Strain/Indicator: TA1538, Metabolic Activation: RAT, LIVER, S-9, KC 500, Method: PREINCUBATION inactive; negative | Test System: E. COLI, Strain/Indicator: WP2 UVRA, Metabolic Activation: NONE, Method: PREINCUBATION inactive; negative | Test System: E. COLI, Strain/Indicator: WP2UVRA, Metabolic Activation: NONE, Method: PREINCUBATION inactive; negative | Test System: E. COLI, Strain/Indicator: WP2UVRA, Metabolic Activation: RAT LIVER S-9, PHENOBARBITAL AND BETA-NAPHTHOFLAVONE, Method: PREINCUBATION inactive; negative | Test System: E. COLI, Strain/Indicator: WP2 UVRA, Metabolic Activation: RAT, LIVER, S-9, KC 500, Method: PREINCUBATION inactive; negative
